Laboratory results from PMC8466755, “GPCR Pharmacological Profiling of Aaptamine from the Philippine Sponge Stylissa sp. Extends Its Therapeutic Potential for Noncommunicable Diseases” (Molecules, 2021).
pEC50, pIC50: −log10 of the molar value. Entries after “also recorded” stand apart in the source; their conditions may differ.

What was measured:
OPRK1 = OPRK1 (Homo sapiens, UniProt P41145); experiment: PathHunter β-arrestin assay, positive allosteric modulation (PAM) mode; assay type: cell-based; details: dose-response, control agonist at EC20
Chain of OPRK1 (P41145 whole entry): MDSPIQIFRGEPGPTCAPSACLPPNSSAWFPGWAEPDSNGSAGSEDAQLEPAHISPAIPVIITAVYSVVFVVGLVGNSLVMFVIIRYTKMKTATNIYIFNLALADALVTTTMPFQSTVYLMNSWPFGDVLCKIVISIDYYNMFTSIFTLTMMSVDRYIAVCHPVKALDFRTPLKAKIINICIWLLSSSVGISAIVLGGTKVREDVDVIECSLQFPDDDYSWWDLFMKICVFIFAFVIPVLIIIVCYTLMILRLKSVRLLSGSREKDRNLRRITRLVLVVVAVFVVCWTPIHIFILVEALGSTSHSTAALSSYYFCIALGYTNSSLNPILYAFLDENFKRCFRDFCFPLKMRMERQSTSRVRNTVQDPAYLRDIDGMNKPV
Experimental: (§2) For PAM assays, the cells were preincubated with the sample followed by agonist induction at the EC20 concentration. To the cells, 5 µL of 5X sample was added and incubated for 30 min at 37 °C or room temperature. Following the incubation period, 5 µL of the 6X EC20 agonist prepared in an assay buffer was added to the cells and incubated for 90 or 180 min at 37 °C or room temperature.

ADRA2C = ADRA2C (Homo sapiens, UniProt P18825); experiment: PathHunter β-arrestin assay, antagonist mode; assay type: cell-based
Chain of ADRA2C (P18825 whole entry): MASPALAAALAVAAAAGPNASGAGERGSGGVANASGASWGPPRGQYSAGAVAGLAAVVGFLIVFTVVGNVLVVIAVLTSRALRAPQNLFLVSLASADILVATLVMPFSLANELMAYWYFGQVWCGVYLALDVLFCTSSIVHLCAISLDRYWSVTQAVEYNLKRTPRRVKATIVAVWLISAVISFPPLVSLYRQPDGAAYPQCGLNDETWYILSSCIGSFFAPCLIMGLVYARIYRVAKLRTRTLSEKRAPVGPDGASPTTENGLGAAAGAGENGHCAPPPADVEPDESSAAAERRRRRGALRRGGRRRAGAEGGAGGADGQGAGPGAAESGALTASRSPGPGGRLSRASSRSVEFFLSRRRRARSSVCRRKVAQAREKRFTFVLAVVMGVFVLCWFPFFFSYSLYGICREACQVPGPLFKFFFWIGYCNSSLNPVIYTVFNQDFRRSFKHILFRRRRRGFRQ
Experimental: The assay was performed by DiscoverX Corporation (Fremont, CA) using PathHunter β -arrestin enzyme fragment complementation (EFC) technology, in a similar way to that described elsewhere [35, 36]. The PathHunter cell lines were taken from freezer stocks according to standard procedures. A total of 20 µL of cells were seeded into white 384-well plates and incubated at 37 °C for the appropriate time prior to testing.

CCR1 = biological target: T1, CCR1 (Homo sapiens, UniProt P32246); experiment: PathHunter β-arrestin assay, agonist mode; assay type: cell-based
T1 sequence (P32246 1-355): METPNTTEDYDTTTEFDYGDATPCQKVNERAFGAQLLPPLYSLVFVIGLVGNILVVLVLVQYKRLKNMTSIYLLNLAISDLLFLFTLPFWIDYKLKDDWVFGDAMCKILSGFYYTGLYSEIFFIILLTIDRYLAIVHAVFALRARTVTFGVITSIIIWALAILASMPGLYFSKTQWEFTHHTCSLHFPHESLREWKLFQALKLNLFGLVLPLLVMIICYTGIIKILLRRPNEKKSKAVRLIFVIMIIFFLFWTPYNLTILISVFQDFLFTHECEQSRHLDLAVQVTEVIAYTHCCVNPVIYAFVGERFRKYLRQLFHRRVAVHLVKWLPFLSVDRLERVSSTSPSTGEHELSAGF
Experimental: (§1) Aaptamine (20 µM) was profiled in gpcrMAX panel biosensor assays (in agonist and antagonist modes) against a panel of 168 GPCRs. The assay was performed by DiscoverX Corporation (Fremont, CA) using PathHunter β -arrestin enzyme fragment complementation (EFC) technology, in a similar way to that described elsewhere. The PathHunter cell lines were taken from freezer stocks according to standard procedures. A total of 20 µL of cells were seeded into white 384-well plates and incubated at 37 °C for the appropriate time prior to testing.
For agonist determination, aaptamine was incubated with PathHunter cell lines to induce a response. To increase the concentration, intermediate dilution from 20 µM of aaptamine was performed to generate a 5X sample in an assay buffer. Then, 5 µL of 5X sample was added to the plate with PathHunter cells and incubated for 90 or 180 min at 37 °C or room temperature. The percentage activity of aaptamine was calculated following this formula: % activity = 100% × (mean RLU of test sample − mean RLU of vehicle control)/(mean MAX control ligand − mean RLU of vehicle control).
Hit validation was performed by subjecting the aaptamine to an agonist, antagonist, and positive allosteric modulation (PAM) secondary screen utilizing thirteen GPCR biosensor assays (Arrestin) against the following targets: ADRA2A, ADRA2C, ADRB2, CCR1, CCR3, CXCR3, CXCR7, DRD2L, DRD2S, DRD4, HTR1E, OPRK1, and SSTR1. The assays were performed at 10-point concentrations using three-fold serial dilutions in duplicate. For all the assay formats, the final assay vehicle concentration was 1%.

HTR1E = HTR1E (Homo sapiens, UniProt P28566); experiment: PathHunter β-arrestin assay, positive allosteric modulation (PAM) mode; assay type: cell-based; details: dose-response, control agonist at EC20
Chain of HTR1E (P28566 whole entry): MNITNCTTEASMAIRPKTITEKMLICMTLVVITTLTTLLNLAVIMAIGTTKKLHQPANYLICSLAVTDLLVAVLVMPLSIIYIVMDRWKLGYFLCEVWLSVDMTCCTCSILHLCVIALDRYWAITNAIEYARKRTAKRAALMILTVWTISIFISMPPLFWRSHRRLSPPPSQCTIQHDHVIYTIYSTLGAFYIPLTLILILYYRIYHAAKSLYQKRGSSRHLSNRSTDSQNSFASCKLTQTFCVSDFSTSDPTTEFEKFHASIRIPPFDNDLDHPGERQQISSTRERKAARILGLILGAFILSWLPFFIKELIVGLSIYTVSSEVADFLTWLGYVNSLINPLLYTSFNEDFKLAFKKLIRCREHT
Experimental: as §2

[1] = tested on: pdr1 Δ pdr3 Δ S. cerevisiae; experiment: Yeast growth inhibition assay, double deletion strain; details: up to 50 µM, 24 h, PDR-attenuated strain
Experimental: The yeast S. cerevisiae (BY4741) cell culture was prepared by inoculating the microorganism in a 250 mL Erlenmeyer flask containing 50 mL YPD + HEPES medium, followed by incubation at 30 °C for 24–48 h. The assay was performed in a 96-well format. Each well except for the blank contained 100 μL of cell suspension with a final cell density of 5 × 10^4 cells/mL. […] The absorbance was read after a 24 h incubation. […] Nystatin was used as the positive control and DMSO served as the negative control. Each treatment was done in triplicate.

proteasome = tested on: proteasome; design: method as in PMID 20451377; details: read-out: proteasome inhibitory activity IC50; cited from earlier work
DRD2S = DRD2S (Homo sapiens, UniProt P14416); experiment: PathHunter β-arrestin assay, antagonist mode; assay type: cell-based
Chain of DRD2S (P14416 1-414 isoform P14416-2): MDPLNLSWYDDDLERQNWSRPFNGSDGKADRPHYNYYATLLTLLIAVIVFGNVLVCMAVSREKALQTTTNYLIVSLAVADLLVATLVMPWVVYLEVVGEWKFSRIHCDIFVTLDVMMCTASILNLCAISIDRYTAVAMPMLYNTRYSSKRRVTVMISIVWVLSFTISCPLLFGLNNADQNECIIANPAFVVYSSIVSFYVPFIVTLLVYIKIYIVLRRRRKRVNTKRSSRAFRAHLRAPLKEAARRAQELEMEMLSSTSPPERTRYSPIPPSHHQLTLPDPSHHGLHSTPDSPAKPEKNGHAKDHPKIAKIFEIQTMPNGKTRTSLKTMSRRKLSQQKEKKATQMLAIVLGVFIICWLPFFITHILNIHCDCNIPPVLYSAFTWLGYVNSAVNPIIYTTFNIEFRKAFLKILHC
Experimental: as §1
For antagonist determination, PathHunter cells were preincubated with aaptamine followed by the addition of an agonist. In this assay format, the standard agonist was added at an EC80 concentration. To the plate that contained the cells, 5 µL of the 5X sample was added and incubated for 30 min at 37 °C or room temperature. After the incubation period, 5 µL of the 6X EC80 agonist in an assay buffer was added to the cells and incubated for additional 90 or 180 min at 37 °C or room temperature.
Hit validation was performed by subjecting the aaptamine to an agonist, antagonist, and positive allosteric modulation (PAM) secondary screen utilizing thirteen GPCR biosensor assays (Arrestin) against the following targets: ADRA2A, ADRA2C, ADRB2, CCR1, CCR3, CXCR3, CXCR7, DRD2L, DRD2S, DRD4, HTR1E, OPRK1, and SSTR1. […]

CXCR7 = CXCR7 (Homo sapiens, UniProt P25106); experiment: PathHunter β-arrestin assay, agonist mode; assay type: cell-based
Chain of CXCR7 (P25106 whole entry): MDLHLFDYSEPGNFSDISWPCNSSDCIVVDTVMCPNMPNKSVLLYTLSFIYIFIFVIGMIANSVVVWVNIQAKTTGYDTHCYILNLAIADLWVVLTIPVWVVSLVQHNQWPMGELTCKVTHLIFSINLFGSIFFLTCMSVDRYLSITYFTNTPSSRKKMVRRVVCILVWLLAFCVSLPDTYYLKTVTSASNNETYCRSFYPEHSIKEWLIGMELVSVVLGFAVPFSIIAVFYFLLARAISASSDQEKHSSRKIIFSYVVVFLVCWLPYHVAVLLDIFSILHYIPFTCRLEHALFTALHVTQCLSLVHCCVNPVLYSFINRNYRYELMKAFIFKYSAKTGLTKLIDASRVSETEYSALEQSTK

[2] = dose-response analysis, read-out: Dose-Response Maximal Response, % Inhibition
[3] = dose-response analysis, read-out: Dose-Response Maximal Response, % Activation

COc1cc2ccnc3c2c(c1OC)NC=C3 [aaptamine]
validation of potentiator hit under PAM conditions (OPRK1): false positives; also recorded: did not validate
Emax (ADRA2C; [2]): 104%
pIC50 (ADRA2C; dose-response, antagonist mode): 4.92
Emax (CCR1; [3]): 50.2%
pEC50 (CCR1; dose-response, agonist mode): 4.93
validation of potentiator hit under PAM conditions (HTR1E): false positives; also recorded: did not validate
growth inhibitory activity [1]: inactive
pIC50 (proteasome): 4.72
Emax (DRD2S; [2]): 74.4%
pIC50 (DRD2S; dose-response, antagonist mode): 4.59
Dose-Response Maximal Response, % Activation (CXCR7; dose-response analysis): 122.57%
Emax (CXCR7; [3]): 123%
pEC50 (CXCR7; dose-response, agonist mode): 5.21
